From US20260357349A1, “METHODS OF IDENTIFYING AND TREATING CANCER” (Agency for Science, Technology and Research, priority 2022, published 2026)
“Also recorded” adds a separate entry of the source.

How the values were obtained:
RCC = conditions: best responder to the combined therapy; cited from earlier work
786-O cells = test: Colony formation, 786-O isogenic cells; format: cell-based, human; conditions: 786-O with and without PBRM1, vs DMSO
Experimental: (§1) Colony formation of parental (WT) or PBRM1 knockout (KO) 786-O cells expressing shRNA against non-targeting control (NC), RELA, or NFKB1 cultured with a) 10% or b) 2% serum. c) Gene expression changes of NF-κB target genes in 786-O cells treated with 0.006 μM bortezomib (BTZ) or 0.6 µM Bay 11-7085 for 24 hours (n=3 technical replicates). * p-value<0.05 (two-sided t-test). […] A positive log fold change refers to gain in bortezomib treatment over DMSO. g) Colony formation of 786-O isogenic cells and h) NCC432 isogenic cells treated with bortezomib for a week. Tumor formation of isogenic 786-O cells (i) and NCC432 cells (j) treated with PBS control or 0.5 mg/kg bortezomib (BTZ) in NSG mice. (n=10 tumors per group for 786-O, and n=16 tumors for NCC432 PBS EV group and 12 tumors for NCC432 PBS PBRM1 group and 14 tumors for both NCC432 EV and PBRM1 BTZ groups). Data are presented as mean values+/−SEM. k) Model for the study.
Data are presented as median+/−25%. […] Data are presented as mean values+/−SD. e) Tornado plots of RELA and SMARCA4 ChIP-seq signals in parental 786-0 or PBRM1-KO 786-O cells treated with DMSO or 0.005 μM bortezomib for 9 hours. f) Kaplan-Meier curves of NSG mice bearing 786-O isogenic cells treated with PBRM1 control or 0.5 mg/kg bortezomib (WT: n=10 PBS arm, median survival=39 days; n=10 bortezomib arm, median survival=52 days, HR=4.1, p=3E-6, log rank test; KO: n=10 PBS arm, median survival=35 days, n=10 bortezomib arm, median survival=66 days, HR=4.1, p=3E-6, log rank test). g) Kaplan-Meier curves of NSG mice bearing NCC432 isogenic cells treated with PBRM1 control or 0.5 mg/kg bortezomib (EV: n=16 PBS arm, median survival=42 days; n=14 bortezomib arm, median survival=49 days, HR=2.5, p=0.0009, log rank test; PBRM1: n=12 PBS arm, median survival=55 days; n=14 bortezomib arm, median survival=58 days, HR=1.2, p=0.5, log rank test). h) 786-O PBRM1 WT or KO cells were screened against the high-specific SGC epigenetic probe collection and cell viability was measured by colony formation after 1 week of treatment relative to DMSO control. […]

[1] = system: NF-κB target genes (786-O cells); test: RT-qPCR of NF-κB target genes after NF-κB inhibitor, 786-O; format: cell-based, human; conditions: 0.006 μM bortezomib or 0.6 µM Bay 11-7085, 24 hours
Experimental: as §1

IκBα / NF-κB = conditions: cited from earlier work
[2] = system: NF-κB target genes (NCC432 cells); test: RT-qPCR of NF-κB target genes after SMARCA2/4 ATPase inhibitor, NCC432; format: cell-based, human
From the text: Data are presented as mean values+/−SD. b) Colony formation of 786-O cells expressing shRNA against non-targeting control (NTC) or ARID2. c) Colony formation of 786-O cells expressing shRNA against non-targeting control (NTC) or SMARCA4. d) Immunoblotting and e) colony formation of NCC432 cells expressing shRNA against non-targeting control (NTC) or ARID2 (n=3 biological replicates). Data are presented as mean values+/−SD. * p<0.05, ** p<0.01 (two-sided t-test). f) Immunoblotting and g) colony formation of NCC432 cells expressing shRNA against non-targeting control (NTC) or SMARCA4 (n=4 biological replicates). Data are presented as mean values+/−SD. *** p<0.001, **** p<0.0001 (two-sided t-test). In vivo tumor formation in h) 786-O parental cells and i) 786-0 PBRM1 KO cells expressing shRNA against non-targeting control (NTC), ARID2 (clone 1) or SMARCA4 (clone 2) (n=10 tumors per group). Data are presented as mean values+/−SEM for tumor growth and mean values+/−SD for tumor weight. **** p<0.0001 (two-sided t-test).
It was previously shown that inhibiting the SMARCA4 ATPAse subunit abolished chromatin accessibility and binding of SMARCA4-dependent transcription factors. To understand whether the activation of pathway requires the ATPase activity of SMARCA4, 786-O and NCC432 cells were treated with SMARCA2/4 ATPase inhibitor. […]

[3] = system: RELA occupancy at NF-κB target genes; test: ChIP-qPCR of RELA occupancy after SMARCA2/4 ATPase inhibitor, 786-O; format: cell-based, human; conditions: PB1-deficient setting, 24 hours
Experimental: For each protein of interest, approximately 2×10^7 cells were cross-linked with 1% formaldehyde for 10 min at room temperature, and stopped by adding glycine to a final concentration of 0.2M. Chromatin was extracted and sonicated to ~500 bp (Vibra cell, SONICS). The following antibodies were used for chromatin immunoprecipitation: PBRM1 (Bethyl A301-591A Lot: 3-4), SMARCA4 (AbCAM ab110641 Lot: GR3208604-8), ARID2 (Bethyl A302-230A Lot: 2), BRD7 (Bethyl A302-304A Lot: 1), ARID1A (Santa Cruz sc-32761 Lot: #H2217), SMARCC1 (Santa Cruz sc-32763 Lot: #K1617), NFkB p65/RELA (Santa Cruz sc-372 Lot: #J1915; Diagenode C15310256, Lot: 24468; Invitrogen 51-0500, Lot: WG331314), BRD9 (Bethyl A303-781A, Lot2), RNA POL II (Merck Millipore 05-623 Lot: 2958013), H3K27ac (AbCAM ab4729-100 Lot: 741806), H3K14ac (AbCAM ab52946 Lot: GR3252548-5), H3K4me3 (Merck Millipore 07-473 Lot: 2930138), H3K4me1 (AbCAM ab8895 Lot: GR312093-1), H3K27me3 (Millipore 07-449 Lot: JBC1924326), H3K9me3 (Millipore 07-442 Lot: DAM1411287). The total volume of immunoprecipitation was 2 ml and the amount of antibody used was 20 μg. The input DNA was precleared with protein G Dynabeads (LifeTechnologies) for 2 hours at 4 °C and then incubated with antibodies overnight at 4 °C. […] Each library was sequenced to an average depth of 30-50 million reads on HiSeq2000, HiSeq4000 or Novaseq 6000.

[4] = system: NF-κB target genes (786-O cells); test: RT-qPCR of NF-κB target genes after SMARCA2/4 ATPase inhibitor, 786-O; format: cell-based, human
[5] = system: NF-κB pathway (786-O cells); test: RNA-seq gene set enrichment of direct NF-κB targets after SMARCA2/4 ATPase inhibitor, 786-O; format: cell-based, human; conditions: 10 μM, 24 hours
Experimental: Data are presented as mean values+/−SD. b, c) 786-O parental and PBRM1 KO cells were treated with 10 μM of SMARCA2/4 ATPase inhibitor for 24 hours and transcriptomic changes were evaluated by RNA-seq (n=2 biological replicates). […] P values were calculated by Kolmogorov-Smirnov test and q value was adjusted for multiple hypotheses testing using gene permutation. d) 786-O cells expressing dox inducible shRNA against ARID2 were treated with 1 μg/ml doxycycline for 2 days and the gene expression of NF-κB targets were quantified by RT-qPCR (n=3 technical replicates representative of 2 biological replicates). Data are presented as mean values+/−SD. * p<0.05, ** p<0.01 (two-sided t-test). e) Single cell clones of either PBRM1 or ARID2 knockout were created in 769-P cells. […] P values were calculated by Kolmogorov-Smirnov test and q values were adjusted for multiple hypotheses testing using gene permutation. […]
Total RNA was extracted using the Qiagen RNeasy Mini kit. […] Sequencing was performed on an Illumina HiSeq4000 sequencer with the paired-end 150 bp read option.
RNA-Seq Pathway Analysis RNA-seq data were mapped to hg19 (h117d5) using STAR, with GENCODE annotation (gencode.v19.annotation.gtf) and recommended settings from STAR manual. Gene expression levels were quantified with STAR. […]

Compound: bevacizumab: bevacizumab therapy
- prior therapy outcome (RCC): failed

Compound: CC(C)(C)c1ccc(S(=O)(=O)/C=C/C#N)cc1 [Bay 11-7085]
- reducing colony formation (786-O cells): not Bay 11-7085 was effective
- suppressing the expression of NF-κB target genes [1]: not Bay 11-7085 was effective
- effect on IκBα phosphorylation (IκBα / NF-κB; TNFα-induced vs basal): inhibits TNFα-induced but not basal IκBα phosphorylation
- effect on nuclear translocation of NF-κB (IκBα / NF-κB; TNFα-induced): prevents TNFα-induced nuclear translocation of NF-κB

Compound: O=C(Nc1cc(C(F)F)ns1)Nc1cc(F)ncc1CO [SMARCA2/4 ATPase inhibitor]
- downregulation of BCL2A1 and TNF, PB1-deficient vs proficient ([2]; NCC432): greater downregulation in the PB1-deficient setting compared to the proficient setting
- downregulation of NF-κB target genes ([2]; NCC432 empty vector or PBRM1, 3 days): dose-dependent downregulation of NF-κB target genes
- regions probed with significantly decreased RELA occupancy [3]: 5/6
- downregulation of BCL2A1 and TNF, PB1-deficient vs proficient ([4]; 786-O): greater downregulation in the PB1-deficient setting compared to the proficient setting
- downregulation of NF-κB target genes ([4]; 786-O parental and PB1 KO, 10, 20 and 50 μM, 3 days): dose-dependent downregulation of NF-κB target genes
- sensitivity of PDLIM4 and APOL3 expression ([4]; both PB1-proficient and deficient setting): exquisitely sensitive
- gene set enrichment of direct NF-κB targets, PB1-deficient vs parental [5]: greater effect of NF-κB downregulation in PB1-deficient cells compared to parental 786-O cells; also recorded: greater downregulation of NF-κB pathway in PBRM1-deficient cells compared to parental 786-O cells
